Test results as given in paper PMC7002685, “Inhibition of vascular calcification by inositol phosphates derivatized with ethylene glycol oligomers” (Nature Communications, 2020).
Where “and” joins values, the source holds several entries; their conditions need not be identical. Identical values can stand only once. Like-named read-outs stand apart in the source and are kept apart here.

How the values were obtained:
primary human VSMCs [1] = assay: VSMC viability (MTS) in high-CaP medium; assay type: cell-based
[2] = VSMC viability (MTS) in high-CaP medium; assay type: cell-based, human; conditions: human, read-out: VSMC viability (MTS), % of medium control; for viability at 5 days, 10 µM: 10 µM in high-CaP medium; for viability at 5 days, 100 µM: 100 µM in high-CaP medium
primary human VSMCs [3] = assay: VSMC viability (MTS), compounds only; assay type: cell-based; conditions: for VSMC viability (MTS), % of medium control: compound only
[4] = Inhibition of calcium phosphate precipitation in serum-free buffer; assay type: physicochemical; conditions: for inhibition of calcium phosphate precipitation, serum-free: 10 mM calcium, 6 mM phosphate, HBS pH 7.4, 90 min, 37 °C
Text: calcification in organs other than these are available from the present study.
We have included the latest research on CPPs and the respective literature now in the introduction (p. 4, line 74 ff.).
The way I see it the compound stabilizes CPP1, which can be more easily cleared unless it occurs in very high amounts and cannot be cleared at all. Therefore it is important to measure renal mineral clearance ± compound (see comment for Fig 3)
We have amended the discussion in the revised manuscript with respect to the hypothesis on the mechanism of action of (OEG2)2-IP4 postulated by the reviewer. (p. 32, line 614 ff.). We have further addressed the mechanism of action in response to Reviewer #4 Comment 3.
Did they test if (OEG2)2-IP4 compound alone stabilized supersaturated Ca and Pi solutions by forming colloids akin to CPP? […]
and phosphate and formation of hydroxyapatite with the assay from Heiss, A. et al.5. In brief, compound, 10 mM calcium solution and 6 mM phosphate solution in Hepes buffered saline (pH 7.4, RT) were incubated for 90 min at 37 °C and centrifuged at 8 000 x g for 5 min. The recovered pellet was dissolved in 1% (v/v) acetic acid and the calcium content quantified […]. (OEG2)2-IP4 alone stabilized supersaturated calcium and phosphate in […]
CPP1s (Rh < 100 nm) were detected by dynamic light scattering. […]
synergistic effect of (OEG2)2-IP4 with endogenous calcification inhibitors, such as fetuin-A in […]
that are not physiological (no serum), we prefer not to include these additional data in the […]

primary human VSMCs [5] = assay: CPP2-induced VSMC calcification; assay type: cell-based; conditions: for VSMC calcium deposition, % of CPP2 control: CPP2 50 µg Ca/mL
Method: Macrophage accumulation and inflammation coincide with the initial phase of calcification. To this end, VSMCs and THP-1-derived macrophages were exposed to CPP2-supplemented medium. CPP2 prepared from human serum as described previously[61] (Supplementary Figs. 6 and 7), induced a pronounced VSMC monolayer calcification after 48 h, which was decreased by (OEG2)2-IP4 in a dose-dependent fashion, and the effect became significant at 10 µM (Fig. 3e). […] Both H2O2 (proxy for oxidative stress) and tumor necrosis factor-alpha (TNF-α) (proxy for inflammatory response) levels were assayed in the VSMC culture supernatants subsequent to CPP2 treatment with and without compounds[30]. However, no increase in H2O2 nor TNF-α compared to control could be detected in either assay. For the CPP-induced VSMC calcification assay (Fig. 3e) a roughly 10-fold higher concentration of (OEG2)2-IP4 was necessary to achieve similar activity as in the CaP-induced VSMC calcification assay (Fig. 3b). […] In the CaP assay, low inhibitor concentration may be sufficient to inhibit crystal nucleation, whereas for the CPP assay higher inhibitor concentrations may be needed to achieve sufficient particle stabilization by chemisorption of inhibitor onto CPPs. Similar results have been reported for hydrogen sulfide in the context of VC[62],[64]. […] An increase in the TNFα levels in the cell culture supernatants was not observed for (OEG2)2-IP4 with (Fig. 3h) and without (Supplementary Fig. 10) combined CPP2 treatment.
(§1) Primary human VSMCs (C-12533, PromoCell, Heidelberg, Germany) were cultured according to the manufacturer's guidelines in SMC-2 culture medium (C-22062, PromoCell) and used up to passage 7. For calcification experiments cells were seeded onto 24-well plates (TPP) at a density of 20,000 cells/well and left to attach for 48–72 h. Complete medium was M199 medium (31150022, Thermo Fischer Scientific), supplemented with 10% v/v FBS (10270106, Thermo Fisher Scientific, Waltham, MA), 1% v/v penicillin/streptomycin (15140122, Thermo Fisher Scientific), and 4 mM L-glutamine (25030024, Thermo Fisher Scientific)[80]. Calcification of cell monolayers was induced as described previously[81] by treatment with CPP2-supplemented (50 µg Ca/mL) medium with or without test compounds (1, 3, 10, 30, and 100 µM) at a volume of 1 mL/well for 48 h at 37 °C, 5% CO2. In a second assay, calcification was induced similar to previous experiments[56] by cell treatment with or without test compounds (0.01, 0.1, 1, 10, and 100 µM) in complete medium supplemented with calcium (2.7 mM) and phosphate (2.5 mM) (CaP medium) at a volume of 1 mL/well for 5 days, and treatment medium was replaced on alternate days.
(§2) Calcium deposition on cell monolayers was assessed qualitatively by staining for calcium with 2% w/v Alizarin Red S aqueous solution (pH 4.2) (05600, Fluka Analytical). Cell monolayers in 24-well plates were washed with PBS (10010015, Thermo Fischer), fixed in 10% v/v NBF in PBS (F8775, Sigma-Aldrich) for 45 min at RT, washed with milli-Q water, incubated for 3 min with 300 µL Alizarin Red S solution, washed with milli-Q, and images were acquired using a Axiovert 35 microscope (Zeiss, Carl Zeiss Microscopy GmbH, Jena, Germany) at ×100 magnification. Calcium quantitation was performed after washing cells with PBS and then decalcifying cell monolayers with 0.1 M HCl overnight at 4 °C. Acidic supernatants were centrifuged (10,000 × g, 4 °C, 10 min) and calcium content was assessed using the calcium colorimetric assay.

primary human VSMCs [6] = assay: High-CaP medium-induced VSMC calcification; assay type: cell-based; conditions: for VSMC calcium deposition, % of high-CaP control: high-CaP medium, 5 days
Method: Incubation of VSMCs in high-CaP medium induced cell monolayer calcification after 5 days (Fig. 3b). […] The effect became significant from 0.1 µM (OEG2)2-IP4 on, where a 54% reduction in calcification was observed compared to untreated high-CaP medium-exposed cells.
as §1, §2

[7] = 0.01 µM in high-CaP medium, replicates Fig. 3d

Structure (SMILES): COCCOCCO[C@@H]1[C@@H](OP(=O)(O)O)[C@H](OCCOCCOC)[C@@H](OP(=O)(O)O)[C@@H](OP(=O)(O)O)[C@H]1OP(=O)(O)O [(OEG2)2-IP4, 4,6-Di-O-(methoxy-diethyleneglycol)-myo-inositol-1,2,3,5-tetrakis(phosphate)]
- VSMC viability (MTS), % of medium control (primary human VSMCs [1]; [7]): 53.4% and 66.46%
- VSMC viability (MTS), % of medium control (primary human VSMCs [1]; 0.1 µM in high-CaP medium): 53.2% and 65.81%
- VSMC viability (MTS), % of medium control (primary human VSMCs [1]; 1 µM in high-CaP medium): 67.8% and 94.42% and 93.48%
- VSMC viability (MTS), % of medium control (primary human VSMCs [1]; 10 µM in high-CaP medium): 90.2% and 89.04%
- VSMC viability (MTS), % of medium control (primary human VSMCs [1]; 100 µM in high-CaP medium): 91.5% and 93.79%
- cell viability vs high-CaP medium control (primary human VSMCs [1]; 0.01 and 0.1 µM): slightly decreased
- viability at 5 days, 0.01 µM [2, 7]: 65.9%
- viability at 5 days, 0.1 µM ([2]; 0.1 µM in high-CaP medium): 72.3%
- viability at 5 days, 10 µM [2]: 71.1%
- viability at 5 days, 100 µM [2]: 83.5%
- VSMC viability (MTS), % of medium control (primary human VSMCs [3]; 0.01 µM, replicates Fig. 3a): 106.7% and 112.6% and 127.9%
- VSMC viability (MTS), % of medium control (primary human VSMCs [3]; 0.1 µM): 105.4% and 101.1% and 125.7%
- VSMC viability (MTS), % of medium control (primary human VSMCs [3]; 1 µM): 106.9% and 113.8%
- VSMC viability (MTS), % of medium control (primary human VSMCs [3]; 10 µM): 100.7% and 120.7%
- VSMC viability (MTS), % of medium control (primary human VSMCs [3]; 100 µM): 101.2% and 99.46% and 122.9%
- changes in cell viability (primary human VSMCs [3]; 0.01–100 µM): did not lead to any changes in cell viability
- precipitate formation, serum-free ([4]; 1 mM): no precipitate formed
- inhibition of calcium phosphate precipitation, serum-free [4]: stabilized supersaturated calcium and phosphate in solution dose dependently
- fold higher concentration necessary in CPP-induced vs CaP-induced VSMC calcification assay (primary human VSMCs [5]): roughly 10 fold
- VSMC calcium deposition, % of CPP2 control (primary human VSMCs [5]; 1 µM, 48 h, replicates Fig. 3e): 88.4113% and 80.5453% and 68.3456% and 69.0785%
- VSMC calcium deposition, % of CPP2 control (primary human VSMCs [5]; 3 µM, 48 h): 92.4907% and 73.6279% and 53.9051% and 56.3804%
- concentration at which decrease of CPP2-induced calcification became significant (primary human VSMCs [5]; 48 h): 10 µM
- VSMC calcium deposition, % of high-CaP control (primary human VSMCs [6]; 0.01 µM, replicates Fig. 3b): 129.5% and 91.16% and 131.6%
- reduction in calcification vs untreated high-CaP medium-exposed cells (primary human VSMCs [6]; 0.1 µM): 54%
- VSMC calcium deposition, % of high-CaP control (primary human VSMCs [6]; 0.1 µM): 56.69% and 37.74% and 44.37%
- VSMC calcium deposition, % of high-CaP control (primary human VSMCs [6]; 1 µM): 4.7% and 5.812% and 10.69%
- VSMC calcium deposition, % of high-CaP control (primary human VSMCs [6]; 10 µM): 4.402% and -0.7134% and 6.025%
- VSMC calcium deposition, % of high-CaP control (primary human VSMCs [6]; 100 µM): 4.139% and 1.382% and 4.723%
- calcium deposition (primary human VSMCs [6]; above 1 µM): almost completely abrogated

Structure (SMILES): O=P(O)(O)O[C@H]1[C@H](OP(=O)(O)O)[C@@H](OP(=O)(O)O)[C@H](OP(=O)(O)O)[C@@H](OP(=O)(O)O)[C@H]1OP(=O)(O)O [IP6, myo-Inositol hexakisphosphate]
- VSMC viability (MTS), % of medium control (primary human VSMCs [1]; [7]): 67.31% and 30.78% and 56.19%
- VSMC viability (MTS), % of medium control (primary human VSMCs [1]; 0.1 µM in high-CaP medium): 69.48% and 36.65% and 58.54%
- VSMC viability (MTS), % of medium control (primary human VSMCs [1]; 1 µM in high-CaP medium): 54.02% and 63.76%
- VSMC viability (MTS), % of medium control (primary human VSMCs [1]; 10 µM in high-CaP medium): 84.96% and 80.54%
- VSMC viability (MTS), % of medium control (primary human VSMCs [1]; 100 µM in high-CaP medium): 97.34% and 86.99%
- viability at 5 days, 1 µM ([2]; primary human VSMCs, 1 µM in high-CaP medium): 68.8%
- viability at 5 days, 10 µM ([2]; primary human VSMCs): 69.9%
- viability at 5 days, 100 µM ([2]; primary human VSMCs): 78.7%
- VSMC viability (MTS), % of medium control (primary human VSMCs [3]; 0.01 µM, replicates Fig. 3a): 107.6% and 117.7% and 127.9%
- VSMC viability (MTS), % of medium control (primary human VSMCs [3]; 0.1 µM): 101.2% and 116.5% and 123.9%
- VSMC viability (MTS), % of medium control (primary human VSMCs [3]; 1 µM): 102.4% and 110.2% and 123.7%
- VSMC viability (MTS), % of medium control (primary human VSMCs [3]; 10 µM): 107.1% and 105.1% and 128.6%
- VSMC viability (MTS), % of medium control (primary human VSMCs [3]; 100 µM): 108.9% and 116.9% and 143.6%
- inhibition of calcium phosphate precipitation, serum-free [4]: barely effective
- VSMC calcium deposition, % of CPP2 control (primary human VSMCs [5]; 1 µM, 48 h, replicates Fig. 3e): 77.8896% and 82.8838% and 86.0538% and 91.73%
- VSMC calcium deposition, % of CPP2 control (primary human VSMCs [5]; 3 µM, 48 h): 95.5105% and 90.2183% and 79.3785% and 87.2842%
- VSMC calcium deposition, % of CPP2 control (primary human VSMCs [5]; 10 µM, 48 h): 37.8415%
- VSMC calcium deposition, % of CPP2 control (primary human VSMCs [5]; 30 µM, 48 h): 57.6847% and 47.1535% and 71.7458% and 75.8811%
- VSMC calcium deposition, % of CPP2 control (primary human VSMCs [5]; 100 µM, 48 h): 79.2544% and 65.4345% and 85.4719%
- VSMC calcium deposition, % of high-CaP control (primary human VSMCs [6]; 0.01 µM, replicates Fig. 3b): 45.78% and 57.03% and 44%
- VSMC calcium deposition, % of high-CaP control (primary human VSMCs [6]; 1 µM): 43.35% and 32.19% and 33.2%
- VSMC calcium deposition, % of high-CaP control (primary human VSMCs [6]; 10 µM): 27.4% and 34.12% and 27.96%
- reduction of VSMC mineralization (primary human VSMCs [6]; all doses studied (up to 100 µM)): 50–70%
